Assay [1] deals with T1, A1 adenosine receptor (Cavia porcellus, UniProt P47745).
T1 sequence (P47745 1-326): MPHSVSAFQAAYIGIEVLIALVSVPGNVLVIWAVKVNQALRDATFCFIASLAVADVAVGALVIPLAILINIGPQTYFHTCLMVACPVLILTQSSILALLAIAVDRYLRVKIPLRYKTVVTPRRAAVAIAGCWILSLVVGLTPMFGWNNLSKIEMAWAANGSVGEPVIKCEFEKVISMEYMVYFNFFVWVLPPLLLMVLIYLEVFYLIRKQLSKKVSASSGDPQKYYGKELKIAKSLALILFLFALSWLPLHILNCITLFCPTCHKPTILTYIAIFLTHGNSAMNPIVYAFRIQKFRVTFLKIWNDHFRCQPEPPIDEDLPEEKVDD
Protocol: (§1) The perfusion buffer consisted of 120 mM NaCl, 27 mM NaHCO3, 3.7 mM KCl, 1.3 mM KH2 PO4, 0.64 mM MgSO4, 1.3 mM CaCl2, 2 mM pyruvate, and 5 mM glucose. […] Continuous drainage of the left ventricle by means of a catheter inserted across the mitral valve insured that this cardiac chamber did no external work. An electrode in the right ventricle monitored the electrocardiogram. Timed collections of cardiac effluent in a graduated cylinder during the steady-state phase of the flow responses to compound administration measured total coronary flow, which was also monitored by an in-line electromagnetic flowmeter in the aortic perfusion cannula. The quotient of the ratio of compound infusion (mol/min) divided by coronary flow rate (L/min) equals agonist concentration in the perfusate. […] The quotient of the EC50 of stimulus-QRS prolongation divided by the EC50 of coronary vasodilation provided an index of selectivity.

For assay [2], the target named is A2 adenosine receptor (Cavia porcellus, UniProt P46616).
Protocol: as §1
A further assay has as its system guinea pig heart. Description: Second degree heart block (Wenckebach point), Langendorff guinea pig heart. Conditions: for minimal effective concentration: Cavia porcellus, read-out: Wenckbach. Here is the method: An electrode in the right ventricle monitored the electrocardiogram. […] The rate of agonist infusion was increased stepwise at intervals of 3-4 minutes until the appearance of second degree heart block (Wenckebach point).

Assay [3] concerns A2 adenosine receptor.
Protocol: as §1
The target in assay [4] is A2 adenosine receptor. Conditions: read-out: EC50 for coronary vasodilation; coronary arteries (vasodilation); cited from earlier work.
Assay [5] has as its target T1, A1 adenosine receptor. Conditions: BIOASSAY RESULTS table.
Protocol: as §1
For assay [6] the following is noted: in words; cited from earlier work.
[7] abbreviates: -LOG EC50 A1, BIOASSAY RESULTS table, A1.
The mark [8] stands for this setting: -LOG EC50 A2, BIOASSAY RESULTS table, A2.
Where [9] appears, read: concentration at appearance of second degree heart block.
Setting [10] is: EC50 -SQPR, prolongation of stimulus-QRS interval by 50% of maximum response, perfused guinea pig heart.
Where [11] appears, read: EC50 -CF, coronary vasodilation, perfused guinea pig heart paced at 260 beats/min.
Setting [12] is: EC50-SQPR divided by EC50-CF, >1 indicates selectivity for A2 adenosine receptor.

Where two headings read alike, the source gives them in different places.

Chain of A2 adenosine receptor (Cavia porcellus, UniProt P46616) (P46616 whole entry, the tested form may be a part): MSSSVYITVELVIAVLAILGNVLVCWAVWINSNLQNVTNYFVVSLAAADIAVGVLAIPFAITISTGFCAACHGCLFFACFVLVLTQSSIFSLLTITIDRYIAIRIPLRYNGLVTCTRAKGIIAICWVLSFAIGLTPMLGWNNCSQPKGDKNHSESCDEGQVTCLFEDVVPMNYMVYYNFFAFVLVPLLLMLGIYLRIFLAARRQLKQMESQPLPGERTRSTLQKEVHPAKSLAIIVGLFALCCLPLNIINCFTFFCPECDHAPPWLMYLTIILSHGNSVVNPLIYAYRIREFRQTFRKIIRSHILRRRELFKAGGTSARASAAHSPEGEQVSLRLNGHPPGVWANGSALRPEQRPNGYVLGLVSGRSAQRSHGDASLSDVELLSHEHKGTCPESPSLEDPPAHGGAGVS

As usually defined, the EC50 is the concentration at which the effect is half-maximal. As for `Nc1nc(NN=CCCCC2CCCCC2)nc2c1ncn2[C@@H]1O[C@H](CO)[C@@H](O)[C@H]1O` [3-C Hexylpropyl, H], the EC50 on A1 adenosine receptor [1] (setting [7]) is 66100 nM; at A2 adenosine receptor [2] (setting [8]) it was 1.78 nM.
For `NNc1nc(N)c2ncn([C@@H]3O[C@H](CO)[C@@H](O)[C@H]3O)c2n1` [Example 8, 6-amino-2-diazanyl-9-(β-D-ribofuranosyl)-9H-purine, reference compound], the minimal effective concentration in the assay with guinea pig heart (setting [9]) came to 18.2 µM. In addition, the EC50 is 20000 nM at A1 adenosine receptor [1] (setting [7]), 14600 nM on A1 adenosine receptor [1] (setting [10]), 79.4 nM at A2 adenosine receptor [2] (setting [8]) and 80.4 nM at A2 adenosine receptor [2] (setting [11]). In addition, the “Selectivity (SQPR/CF)” value in the assay with A2 adenosine receptor [3] (setting [12]) is listed as 301.
Turning to `Nc1nc(NN=Cc2cccc3ccccc23)nc2c1ncn2[C@@H]1O[C@H](CO)[C@@H](O)[C@H]1O` [Example 14, 6-amino-2-{2-[(1-naphthyl)methylene]diazanyl}-9-(β-D-ribofuranosyl)-9H-purine], in the assay with guinea pig heart (setting [9]), the minimal effective concentration is 2 µM. The molecule further displayed an EC50 on A2 adenosine receptor [2] (setting [11]) of 9.5 nM. In addition, in the assay with A2 adenosine receptor [3] (setting [12]), the “Selectivity (SQPR/CF)” value is 110.
On to `CCCCCC=NNc1nc(N)c2ncn([C@@H]3O[C@H](CO)[C@@H](O)[C@H]3O)c2n1` [1-Pent, H], for which the half-maximal effective concentration (EC50) at A1 adenosine receptor [1] (setting [7]) is 38900 nM; on A2 adenosine receptor [2] (setting [8]), 1.02 nM.
`Nc1nc(OCCC2CCCCC2)nc2c1ncn2[C@@H]1O[C@H](CO)[C@@H](O)[C@H]1O` [2-(2-cyclohexylethoxy)adenosine]: the EC50 on A2 adenosine receptor [4] is 1 nM.
`Nc1nc(NN=Cc2ccc3ccccc3c2)nc2c1ncn2[C@@H]1O[C@H](CO)[C@@H](O)[C@H]1O` [Example 4, 6-amino-2-{2-[(2-naphthyl)methylene]diazanyl}-9-(β-D-ribofuranosyl)-9H-purine]: the minimal effective concentration with guinea pig heart (setting [9]) stood at 10.1 µM. The 50% effective concentration (EC50) at A1 adenosine receptor [1] (setting [7]) is 2630 nM; at A2 adenosine receptor [2] (setting [8]), 4.17 nM; at A2 adenosine receptor [2] (setting [11]), 4.2 nM. In addition, the “Selectivity (SQPR/CF)” value in the assay on A2 adenosine receptor [3] (setting [12]) turned out to be 767.
Take `CC(=NNc1nc(N)c2ncn([C@@H]3O[C@H](CO)[C@@H](O)[C@H]3O)c2n1)c1ccccc1` [Example 12, 6-amino-2-{2-[1-(phenyl)ethylidene]diazanyl}-9-(β-D-ribofuranosyl)-9H-purine]: the minimal effective concentration in the assay on guinea pig heart (setting [9]) is 11 µM. The same molecule gave an EC50 at A2 adenosine receptor [2] (setting [11]) of 13 nM. Also, the “Selectivity (SQPR/CF)” value in the assay on A2 adenosine receptor [3] (setting [12]) is listed as 380.
Turning to `Nc1nc(NN=Cc2ccc(Cl)cc2)nc2c1ncn2[C@@H]1O[C@H](CO)[C@@H](O)[C@H]1O` [Example 1, 6-amino-2-{2-[(4-chlorophenyl)methylene]diazanyl}-9-(β-D-ribofuranosyl)-9H-purine], the minimal effective concentration in the assay on guinea pig heart (setting [9]) was determined as 30.4 µM.
With `Nc1nc(NN=Cc2cccnc2)nc2c1ncn2[C@@H]1O[C@H](CO)[C@@H](O)[C@H]1O` [Example 5, 6-amino-2-{2-[(3-pyridyl)methylene]diazanyl}-9-(β-D-ribofuranosyl)-9H-purine], in the assay with guinea pig heart (setting [9]), the minimal effective concentration was found to be 63.5 µM. In addition, the half-maximal effective concentration (EC50) at A2 adenosine receptor [2] (setting [11]) stood at 15 nM. For the same molecule, the “Selectivity (SQPR/CF)” value with A2 adenosine receptor [3] (setting [12]) is 2,657.
The molecule `Nc1nc(NN=CCCC2CCCCC2)nc2c1ncn2[C@@H]1O[C@H](CO)[C@@H](O)[C@H]1O` [2-C Hexylethyl, H] showed an EC50 on A1 adenosine receptor [1] (setting [7]) of 9770 nM.
In the case of `Nc1nc(NN=Cc2ccncc2)nc2c1ncn2[C@@H]1O[C@H](CO)[C@@H](O)[C@H]1O` [Example 6, 6-amino-2-{2-[(4-pyridyl)methylene]diazanyl}-9-(β-D-ribofuranosyl)-9H-purine], in the assay on guinea pig heart (setting [9]), the minimal effective concentration is 68 µM. The molecule also yielded a concentration giving a half-maximal response (EC50) on A2 adenosine receptor [2] (setting [11]) of 11 nM. In the assay with A2 adenosine receptor [3] (setting [12]), the “Selectivity (SQPR/CF)” value was 2,817.
In the case of `CC(=NNc1nc(N)c2ncn([C@@H]3O[C@H](CO)[C@@H](O)[C@H]3O)c2n1)c1ccc(F)cc1` [Example 10, 6-amino-2-{2-[1-(4-fluorophenyl)ethylidene]diazanyl}-9-(β-D-ribofuranosyl)-9H-purine], the minimal effective concentration with guinea pig heart (setting [9]) worked out at 7.3 µM. The EC50 is 4170 nM on A1 adenosine receptor [1] (setting [7]), 3.24 nM on A2 adenosine receptor [2] (setting [8]) and 3.2 nM at A2 adenosine receptor [2] (setting [11]). For the same molecule, the “Selectivity (SQPR/CF)” value with A2 adenosine receptor [3] (setting [12]) is recorded as 1,822.
In the case of `Nc1nc(NN=CC2CC=CCC2)nc2c1ncn2[C@@H]1O[C@H](CO)[C@@H](O)[C@H]1O` (some centres unmarked) [3-Cyclo-hexenyl, H], on A1 adenosine receptor [5], the “-LOG EC50 A1” value is 4.86.
In the case of `Nc1nc(NN=Cc2ccccc2)nc2c1ncn2[C@@H]1O[C@H](CO)[C@@H](O)[C@H]1O` [Example 7, 6-amino-2-{2-(phenylmethylene)diazanyl}-9-(β-D-ribofuranosyl)-9H-purine], the minimal effective concentration in the assay with guinea pig heart (setting [9]) came to 216 µM. In addition, the concentration giving a half-maximal response (EC50) on A1 adenosine receptor [1] (setting [7]) is 83200 nM; at A2 adenosine receptor [2] (setting [8]), 2.29 nM; at A2 adenosine receptor [2] (setting [11]), 2.3 nM. Further, the “Selectivity (SQPR/CF)” value with A2 adenosine receptor [3] (setting [12]) is 43,347.
For `COc1ccc(C=NNc2nc(N)c3ncn([C@@H]4O[C@H](CO)[C@@H](O)[C@H]4O)c3n2)cc1` [Example 11, 6-amino-2-{2-[(4-methoxyphenyl)methylene]diazanyl}-9-(β-D-ribofuranosyl)-9H-purine], in the assay on guinea pig heart (setting [9]), the minimal effective concentration is 50 µM.
In the case of `Nc1nc(N)c2ncn([C@@H]3O[C@H](CO)[C@@H](O)[C@H]3O)c2n1` [2-Amino-adenosine, reference compound], the EC50 is 11200 nM at A1 adenosine receptor [1] and 224 nM on A2 adenosine receptor [2] (setting [8]).
For the molecule `Cc1ccc(C=NNc2nc(N)c3ncn([C@@H]4O[C@H](CO)[C@@H](O)[C@H]4O)c3n2)cc1` [Example 9, 6-amino-2-{2-[(4-methylphenyl)methylene]diazanyl}-9-(β-D-ribofuranosyl)-9H-purine], in the assay on guinea pig heart (second degree heart block, unit printed nmol (Example 9)), the Wenckbach is listed as 103,514 nmol. The same molecule gave a concentration giving a half-maximal response (EC50) on A1 adenosine receptor [1] (setting [7]) of 39800 nM.
In the case of `Cc1cccc(C=NNc2nc(N)c3ncn([C@@H]4O[C@H](CO)[C@@H](O)[C@H]4O)c3n2)c1` [Example 16, 6-amino-2-{2-[(3-methylphenyl)methylene]diazanyl}-9-(β-D-ribofuranosyl)-9H-purine], in the assay on guinea pig heart, the minimal effective concentration amounted to 47 µM. The concentration giving a half-maximal response (EC50) at A2 adenosine receptor [2] (setting [11]) is 4.4 nM. For the same molecule, the “Selectivity (SQPR/CF)” value in the assay with A2 adenosine receptor [3] is 4700.
Consider `Nc1nc(NN=Cc2ccc(F)cc2)nc2c1ncn2[C@@H]1O[C@H](CO)[C@@H](O)[C@H]1O` [Example 2, 6-amino-2-{2-[(4-fluorophenyl)methylene]diazanyl}-9-(β-D-ribofuranosyl)-9H-purine], for which, in the assay on guinea pig heart (setting [9]), the minimal effective concentration amounted to 30.9 µM. Besides, the figures for the EC50 on A1 adenosine receptor [1] (setting [10]), at A2 adenosine receptor [2] (setting [8]) and on A2 adenosine receptor [2] (setting [11]) were 12600 nM, 2.45 nM and 2.5 nM, respectively. Moreover, the “Selectivity (SQPR/CF)” value in the assay with A2 adenosine receptor [3] (setting [12]) was 8,500.
`Nc1nc(NN=Cc2cccs2)nc2c1ncn2[C@@H]1O[C@H](CO)[C@@H](O)[C@H]1O` [Example 15, 6-amino-2-{2-[(2-thienyl)methylene]diazanyl}-9-(β-D-ribofuranosyl)-9H-purine]: in the assay with guinea pig heart (setting [9]), the minimal effective concentration is 93 µM. Also, on A2 adenosine receptor [2] (setting [11]), the EC50 is 14 nM. Besides, in the assay with A2 adenosine receptor [3] (setting [12]), the “Selectivity (SQPR/CF)” value came out at 4400.
Consider `Nc1ncnc2c1ncn2[C@@H]1O[C@H](CO)[C@@H](O)[C@H]1O` [Adenosine, 9-β-D-ribofuranosyl-9H-purin-6-amine], for which, in assay [6], the cardiovascular activity result is “hypotensive and bradycardia activity”.
In the case of `CC(C)CCC=NNc1nc(N)c2ncn([C@@H]3O[C@H](CO)[C@@H](O)[C@H]3O)c2n1` [3-Me-1-Bu, H], the EC50 at A1 adenosine receptor [1] (setting [7]) is 20900 nM; at A2 adenosine receptor [2] (setting [8]) it was 0.468 nM.
In the case of `Nc1nc(NN=CC2CCCCC2)nc2c1ncn2[C@@H]1O[C@H](CO)[C@@H](O)[C@H]1O` [Example 3, 6-amino-2-{2-[(cyclohexyl)methylene]diazanyl}-9-(β-D-ribofuranosyl)-9H-purine], in the assay on guinea pig heart, the minimal effective concentration stood at 5.92 µM. For the same molecule, the EC50 was 3550 nM at A1 adenosine receptor [1] (setting [7]), 3550 nM on A1 adenosine receptor [1] (setting [10]), 0.257 nM at A2 adenosine receptor [2] (setting [8]) and 0.3 nM on A2 adenosine receptor [2] (setting [11]). For the same molecule, the “Selectivity (SQPR/CF)” value in the assay on A2 adenosine receptor [3] is recorded as 16,472.
Take `Nc1nc(NN=Cc2ccccn2)nc2c1ncn2[C@@H]1O[C@H](CO)[C@@H](O)[C@H]1O` [Example 13, 6-amino-2-{2-[(2-pyridyl)methylene]diazanyl}-9-(β-D-ribofuranosyl)-9H-purine]: the minimal effective concentration in the assay on guinea pig heart (second degree heart block, unit inferred) was determined as 110 µM. On A2 adenosine receptor [2] (setting [11]), this molecule yielded an EC50 of 5.7 nM. In the assay on A2 adenosine receptor [3] (setting [12]), the “Selectivity (SQPR/CF)” value is on record as 42,000.
As to `Nc1nc(NN=CCCCc2ccccc2)nc2c1ncn2[C@@H]1O[C@H](CO)[C@@H](O)[C@H]1O` [3-Ph Propyl, H], the EC50 at A1 adenosine receptor [1] (setting [7]) is 66100 nM; at A2 adenosine receptor [2] (setting [8]), 1.95 nM.

The values above are taken from US5278150A, “2-hydrazoadenosines and their utility for the treatmeat of vascular conditions” (Whitby Research, Inc., priority 1992, dated 1994).
